Laboratory results taken from patent US11583545B2, “Parasiticidal compositions comprising eprinomectin and praziquantel, methods and uses thereof” (BOEHRINGER INGELHEIM ANIMAL HEALTH USA INC., priority 2018, dated 2023).

Assays:
[1] = Stability study of topical solution in the market container (HPLC, 30° C./65% RH); type: physicochemical; conditions: in formulation of Example 1, two runs
[2] = in vivo
in vivo = conditions: cat
[3] = Pharmacokinetic assessment in cats after administration of the formulation of Example 1; conditions: blood of cats; after administration of formulation of Example 1

| time at which Cmax is reached [2] | half-life (in vivo) | Molecule | average % label claim ([1]; time point 0 month) | average % label claim ([1]; time point 3 months) | average % label claim ([1]; time point 6 months) | average % label claim ([1]; time point 9 months) | average % label claim ([1]; time point 12 months) | average % label claim ([1]; time point 18 months) | terminal half-life [3] |
| --- | --- | --- | --- | --- | --- | --- | --- | --- | --- |
| 6 h | 73.9 h | O=C(C1CCCCC1)N1CC(=O)N2CCc3ccccc3C2C1 (stereo not drawn) [Praziquantel, praziquantel] | 99.52 % LC | 97.38 % LC | 97.74 % LC | 98.44 % LC | 98.36 % LC | 97.04 % LC | – |
| – | – | Eprinomectin | 99.33 % LC | 97.92 % LC | 97.61 % LC | 98.40 % LC | 98.50 % LC | 96.48 % LC | 114 h |
